One assay has as its system MDA-MB-435. Put plainly: Growth inhibition of MDA-MB-435 breast cancer cells. Type of assay: cell-based. To be noted: Homo sapiens. As to the method: (§1) In vitro Activity. […] This cell suspension was dispensed in 200 μL aliquots (1000 cells/well) into the inside wells of 96-well tissue culture plates. Outside wells contained 200 μL of media. […] The medium was replaced with 90 μL of growth medium prior to addition of the drug. Doxaz was dissolved in DMSO at concentrations ranging from 50 μM to 1 mM. […] Serial dilutions (1:3 and 1:10) were made in sterile DMSO to yield seven solutions of decreasing drug concentration at 100× the respective working concentrations. […] Additionally, two lanes were treated with 10 μL of growth medium containing 10% sterile DMSO and one lane was treated with 90 μL of 1.5 M Tris HCl. The cells were incubated at 37° C. for 3 h, at which time the drug solutions were replaced with 200 μL of fresh growth medium.
(§2) Activity of plasmin-activated prodrugs.

The subject of another assay is DU-145. Nature of the assay: Growth inhibition of DU-145 prostate cancer cells. The class given is cell-based. The following applies: for IC50: Homo sapiens. As to the method: as §1, with “The cells were incubated at 37° C. for 3 h, at which time the drug solutions were replaced with 200 μL of fresh growth medium.” left out
(§3) SHP-77 small cell lung cancer cells were also of interest because they express modest amounts of both enzymes. Inhibition of the growth of cardiomyocytes was used as a measure of cardiotoxicity, and inhibition of the growth of Vero cells, green monkey kidney cells, was again used as another measure of toxicity to normal cells.
A more thorough characterization of the growth inhibition of a variety of cancer cells as well as rat cardiomyocytes by Formula IV (aFK-PABC-Doxaz) was evaluated in comparison with inhibition of growth by Doxaz, Dox and aFK-PABC-Dox. […] […] The breast cancer cell lines represent the multi-drug resistant (MDR) phenotype with MCF-7/Adr cells and a cell line that is transfected with the gene for urokinase plasminogen activator (uPA), the primary enzyme responsible for cleavage of plasminogen to plasmin. Rat cardiomyocytes served as a model for comparison of drug cardiotoxicity.

The subject of the next assay is MCF-7. Nature of the assay: Growth inhibition of MCF-7 sensitive breast cancer cells (colony formation, crystal violet). The class given is cell-based, human. The following applies: for IC50: Homo sapiens. As to the method: as §1, with “The cells were incubated at 37° C. for 3 h, at which time the drug solutions were replaced with 200 μL of fresh growth medium.” left out
(§4) Cell growth inhibition experiments initially focused on MCF-7, MCF-7/Adr, SK-HEP-1, and Hep G2 cancer cells as well as rat cardiomyocytes as a measure of cardiotoxicity and Vero cells (green monkey kidney cells) as an additional measure of normal cell toxicity.
as §2
(§5) A more thorough characterization of the growth inhibition of a variety of cancer cells as well as rat cardiomyocytes by Formula IV (aFK-PABC-Doxaz) was evaluated in comparison with inhibition of growth by Doxaz, Dox and aFK-PABC-Dox. Cells were treated with drug for 3 h and colony growth was measured at 3 to 5 days when cells reached about 80% confluence. […] The breast cancer cell lines represent the multi-drug resistant (MDR) phenotype with MCF-7/Adr cells and a cell line that is transfected with the gene for urokinase plasminogen activator (uPA), the primary enzyme responsible for cleavage of plasminogen to plasmin. Rat cardiomyocytes served as a model for comparison of drug cardiotoxicity.

Another assay has as its system cancer cells. Put plainly: Cancer cell growth inhibition, statements over several or unnamed cell lines. Type of assay: cell-based. As to the method:
as §1, §5

In another assay the test system is Hep G2. Nature of the assay: Growth inhibition of Hep G2 liver cancer cells. The class given is cell-based, human. The following applies: for IC50: Homo sapiens, HepG2. An excerpt: Cell growth inhibition experiments initially focused on MCF-7, MCF-7/Adr, SK-HEP-1, and Hep G2 cancer cells as well as rat cardiomyocytes as a measure of cardiotoxicity and Vero cells (green monkey kidney cells) as an additional measure of normal cell toxicity. […]

For a further assay, the system named is MCF-7/Adr cells. Put plainly: Drug uptake by MCF-7/Adr cells, flow cytometry of drug fluorescence. Type of assay: cell-based. To be noted: for Drug uptake relative to Doxorubicin: MCF-7/Adr, 500 nM (equivalents), up to 3 h. As to the method: Drug uptake was measured by flow cytometery. Cells were dissociated with trypsin/EDTA, counted, and suspended in growth media to a concentration of 1×10^5 cells/mL. This cell suspension was dispensed in 2.5 mL aliquots into 6-well tissue culture plates. Plates were then incubated for 24 h at 37° C. in a humidified atmosphere of 5% CO2 and 95% air. The growth media was replaced with 2 mL of fresh growth media prior to addition of the drug. Doxaz, DoxF, and Doxorubicin HCl were dissolved in DMSO each at a concentration of 50 μM. The concentration was then corrected by measuring the solution absorbance at 480 nm (ε=11,500 M^−1 cm^−1). Drug solution (20 μL) was added to an individual well and was incubated for 5 min, 15 min, 30 min, 1 h, 2 h or 3 h at 37° C. in a humidified atmosphere of 5% CO2 and 95% air. All drug treatments were performed so all treatment times would end simultaneously. After treatment, culture media was removed, cells washed once with 0.5 mL HBSS, washed once with 0.5 mL trypsin/EDTA, and 0.5 mL trypsin/EDTA was added and cells were incubated for 5 min. After all cells were trypsinized, cells were aspirated with 1.5 mL cold D-PBS (Dulbecco's phosphate buffered saline, no calcium or magnesium) and this solution was added to 3 mL of cold D-PBS (4.5 mL total D-PBS) in a conical vial. Cells were centrifuged at 200 g for 5 min, and D-PBS was decanted off. Cells were washed once more in 5 mL cold D-PBS, centrifuged at 200 g for 5 min and D-PBS was decanted off. […] Cells were analyzed with excitation at 488 nm (15 mW Ar ion laser), with emission monitored between 570 nm and 600 nm. Instrument settings were optimized for the cell line and held constant for all experiments; for the anthracycline fluorescence analysis, 10,000 cells were analyzed for each sample. The data are presented as the mean fluorescence for each condition.
Uptake of pentyl PABC-Doxaz and Dox by multidrug resistant MCF-7/Adr breast cancer cells and SK-HEP-1 liver cancer cells in the presence of fetal bovine serum was determined by flow cytometry using drug fluorescence as a measure of drug in cells.
On the technique in general: A flow cytometer gives signals particle by particle.

The test system of another assay is Vero cells. Put plainly: Growth inhibition of Vero cells as a measure of normal cell toxicity (MTT). Type of assay: cell-based, green monkey. To be noted: for IC50: Chlorocebus sabaeus, Vero.
Source text: as §4, §3

The mark [1] stands for this setting: MDA-MB-435, read-out: IC50 MDA-MB-435, top line of the cell.
The mark [2] stands for this setting: DU-145, read-out: IC50 DU-145, top line of the cell.
[3] abbreviates: 3 h drug treatment, read-out: Growth inhibition IC50, Vero, 3 h (converted).
Setting [4] is: 24 h drug treatment, read-out: Growth inhibition IC50, Vero, 24 h (converted).
Where [5] appears, read: 3 h drug treatment, crystal violet, read-out: Growth inhibition IC50, Hep G2, 3 h (converted).
Where [6] appears, read: 24 h drug treatment, crystal violet.

Like-named read-outs stand apart in the source and are kept apart here.

As to `COc1cccc2c1C(=O)c1c(O)c3c(c(O)c1C2=O)C[C@@](O)(C(=O)CO)C[C@@H]3O[C@H]1C[C@H]2[C@H](OCN2C(=O)OCc2ccc(NC(=O)[C@H](CCCCN)NC(=O)[C@H](Cc3ccccc3)NC(=O)[C@@H](C)N)cc2)[C@H](C)O1` [Formula IV, D-Ala-L-Phe-L-Lys-p-aminobenzyloxycarbonyl-Doxaz], the IC50 worked out at 240 nM in the assay on MDA-MB-435 (setting [1]); 40 nM in the assay with MDA-MB-435 (MDA-MB-435, + plasmin, second stacked value, read-out: IC50 MDA-MB-435 + plasmin); 6 nM with DU-145 (DU-145, read-out: IC50 DU-145 + plasmin); 160 nM with DU-145 (setting [2]); 5 nM with MCF-7 (MCF7, 3 h, read-out: IC50 MCF-7 + plasmin); 50 nM with MCF-7 (MCF7, read-out: IC50 MCF-7). In addition, in the assay with cancer cells (read-out: Cancer cell growth inhibition IC50 in the presence of plasmin), the IC50 was found to be 5 nM. The “Increase of activity on addition of plasminogen” value in the assay with cancer cells (0.01 unit/mL plasminogen, on average) was 0.3 log. Also, in the assay on cancer cells (most of the cancer cells, 3 h treatment), the “Growth inhibition better than aFK-PABA-Dox” value is on record as at least 0.5 log.

Regarding `COc1cccc2c1C(=O)c1c(O)c3c(c(O)c1C2=O)C[C@@](O)(C(=O)CO)C[C@@H]3OC1CC2C(OCN2CN2COC3C(C)OC(O[C@H]4C[C@](O)(C(=O)CO)Cc5c(O)c6c(c(O)c54)C(=O)c4c(OC)cccc4C6=O)CC32)C(C)O1` (stereo partly drawn) [DoxF, Doxoform, reference compound], the IC50 in the assay on DU-145 (DU-145, 3 h, read-out: IC50 DU-145) worked out at 3 nM; in the assay on MCF-7 (MCF7, 3 h, read-out: IC50 MCF-7), 2 nM. For the same compound, in the assay on Hep G2, the “IC50 lower than doxorubicin, Hep-G2” value is listed as “more than 25 fold”. The “Drug uptake relative to Doxorubicin” value with MCF-7/Adr cells is reported as “significantly more”.

On to `COc1cccc2c1C(=O)c1c(O)c3c(c(O)c1C2=O)C[C@@](O)(C(=O)CO)C[C@@H]3O[C@H]1C[C@H](N)[C@H](O)[C@H](C)O1` [Doxorubicin, reference compound], for which the IC50 with MDA-MB-435 (MDA-MB-435, read-out: IC50 MDA-MB-435) was 150 ± 14 nM; in the assay with MDA-MB-435 (setting [1]), 150 nM; in the assay on Vero cells (setting [3]), 1000 nM; with Vero cells (setting [4]), 501 nM; in the assay with DU-145 (DU-145, 24 h, read-out: Cell growth inhibition IC50, DU-145), 31.6 nM; in the assay on DU-145 (DU-145, read-out: IC50 DU-145) it was 240 nM. The IC50 in the assay with DU-145 (setting [2]) is 300 nM; in the assay with MCF-7 (MCF7, 3 h, read-out: Growth inhibition IC50, MCF-7, 3 h, 3 h drug treatment, crystal violet) it was 316 nM; in the assay on MCF-7 (MCF7, 3 h, read-out: IC50 MCF-7 + plasmin, + plasmin (15 μg/ml)), 300 nM; with MCF-7 (MCF7, 24 h, read-out: Growth inhibition IC50, MCF-7, 24 h, 24 h drug treatment, crystal violet), 12.6 nM; in the assay with MCF-7 (MCF7, read-out: IC50 MCF-7, 3 h drug treatment, growth at 5 days) it was 200 ± 26 nM; with MCF-7 (MCF7, read-out: IC50 MCF-7, no plasmin or aprotinin added) it was 300 nM. Also, the IC50 with Hep G2 (setting [5]) is 200 nM; in the assay on Hep G2 (24 h drug treatment, crystal violet, read-out: Growth inhibition IC50, Hep G2, 24 h (converted)), 31.6 nM. In the assay on cancer cells (0.01 unit/mL of plasmin), the “Effect of added plasmin on activity” value is given as “no effect”.

For the compound `COc1cccc2c1C(=O)c1c(O)c3c(c(O)c1C2=O)C[C@@](O)(C(=O)CO)C[C@@H]3O[C@H]1C[C@@H]2NCO[C@@H]2[C@H](C)O1` [Doxaz, Doxazolidine], the IC50 was 7 ± 0.3 nM in the assay on MDA-MB-435 (MDA-MB-435, 3 h drug treatment, growth at 5 days, read-out: IC50 MDA-MB-435); 6.31 nM in the assay on Vero cells (setting [3]); 7.94 nM with Vero cells (setting [4]); 4 ± 0.6 nM in the assay with DU-145 (DU-145, read-out: IC50 DU-145); 3.16 nM in the assay on MCF-7 (MCF7, 3 h, read-out: Growth inhibition IC50, MCF-7, 3 h); 3 ± 0.2 nM in the assay with MCF-7 (MCF7, read-out: IC50 MCF-7). In addition, in the assay on Hep G2 (setting [5]), the IC50 was 10 nM. Further, the “More toxic than Doxorubicin to multidrug-resistant cancer cells” value with cancer cells (variety of multidrug-resistant cancer cells) was 500-10,000 fold. Besides, the “Drug uptake relative to Doxorubicin” value in the assay on MCF-7/Adr cells was “significantly more”.

On to `CCCCCOC(=O)Nc1ccc(COC(=O)N2COC3C(C)OC(OC4CC(O)(C(=O)CO)Cc5c(O)c6c(c(O)c54)C(=O)c4c(OC)cccc4C6=O)CC32)cc1` (stereo not drawn) [Pentyl PABC-Doxaz, Pentyl 4-(N-doxazolidinylcarbonyloxymethyl)phenylcarbamate], for which the “Growth inhibition IC50, Vero, 24 h” value in the assay with Vero cells (24 h drug treatment) is reported as −6.0 ± 0.04 log of the molar concentration. In addition, in the assay on DU-145 (setting [6]), the “Cell growth inhibition IC50, DU-145” value is −6.7 ± 0.07 log of molar concentrations. Besides, the “Growth inhibition IC50, MCF-7, 24 h” value in the assay on MCF-7 (setting [6]) is −5.6 ± 0.3 log of the molar concentration. The “Growth inhibition IC50, Hep G2, 24 h” value in the assay with Hep G2 (setting [6]) is −7.3 ± 0.2 log of the molar concentration. Also, the “Uptake relative to Dox, MCF-7/Adr” value in the assay with MCF-7/Adr cells (in the presence of fetal bovine serum) is listed as “taken up much better”.

The values are drawn from US8404650B2, “Methods of treating cancer with doxazolidine and prodrugs thereof” (priority 2005, dated 2013).
